Consider 4 molecules from patent publication US20260357222A1, “GROWTH-BASED SELECTION PLATFORM FOR NONCANONICAL COFACTOR OXIDIZING ENZYMES” (The Regents of the University of California, priority 2022, published 2026).

Series [1] addresses T1, Lactobacillus pentosus NADH oxidase (Lp Nox), wild type, SEQ ID NO:1 (Lactiplantibacillus pentosus, UniProt A0A0U3FIG2).
T1 sequence (A0A0U3FIG2 1-450): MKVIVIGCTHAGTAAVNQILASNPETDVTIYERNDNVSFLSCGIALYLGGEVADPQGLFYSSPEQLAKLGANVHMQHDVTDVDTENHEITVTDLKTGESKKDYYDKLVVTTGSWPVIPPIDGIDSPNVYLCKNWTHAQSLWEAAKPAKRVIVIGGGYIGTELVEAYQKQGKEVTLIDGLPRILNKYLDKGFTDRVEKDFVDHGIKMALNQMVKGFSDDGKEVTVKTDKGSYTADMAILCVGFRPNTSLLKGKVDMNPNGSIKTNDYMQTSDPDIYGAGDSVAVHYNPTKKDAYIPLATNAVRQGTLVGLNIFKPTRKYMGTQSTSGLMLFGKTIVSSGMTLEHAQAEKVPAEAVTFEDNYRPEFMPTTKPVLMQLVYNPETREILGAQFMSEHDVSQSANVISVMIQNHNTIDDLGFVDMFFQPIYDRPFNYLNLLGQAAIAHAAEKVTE
The conditions noted are these: role: cofactor; oxidation of MNAH and BNAH by wild-type Lp Nox; cited from earlier work.

Series [2] addresses T2, Lactobacillus pentosus NADH oxidase (Lp Nox) variant LP-7 (I158S-D177W-V240L), SEQ ID NO:3 (Lactiplantibacillus pentosus, UniProt A0A0U3FIG2, D177W/I158S/V240L).
T2 construct: variant LP-7
T2 sequence (A0A0U3FIG2 1-450 I158S/D177W/V240L): T1 sequence (A0A0U3FIG2 1-450) with I158S, D177W, V240L
The series is described as follows: Lp Nox enzymatic kinetics, cofactor oxidation at 340 nm, variant LP-7. Format: biochemical. The following applies: role: cofactor; apparent; 50 mM Tris-HCl pH 7.0, 37 °C; cofactor 0 to 2 mM. On the procedure: (§1) Protein Expression and Purification. Lp Nox wild type or variants (see Table 1) are expressed with E. coli BL21 (DE3) with plasmids inoculated in 2× YT media with 200 mg L^−1 ampicillin. Expression was carried out by inoculation of 20 mL 2× YT media supplied with antibiotics and an overnight culture incubated at 30 °C, 250 RPM with an OD600nm of 0.072. Cells were grown at 37 °C in 50 mL conical tubes, and the cultures were induced with 0.5 mM IPTG at an OD600nm of 0.6-1.0. The 20 mL culture was then incubated at 27 °C and 250 RPM for 24 h. After 24 h, cells were harvested for protein extraction (centrifugation at 4 °C, 3000 RPM, 20 min). Cell pellets were resuspended in Zymo His-Binding buffer (Zymo Research Corporation) supplied with 0.15 mM FAD, 1 μL/mL DNase (Sigma Aldrich) and 1 mM InSolution [COMPOUND LEFT OUT] (Sigma Aldrich). The resuspended cell mixture was added to 0.5 mL of 0.1 mm glass beads (Biospec) and homogenized using a benchtop homogenizer (MP Biomedicals). Cell debris was separated from the crude extract by centrifugation at 4 °C and 15,000 RPM for 5 min. Protein purification was performed using His-Spin Protein Miniprep (Zymo Research Corporation) according to the manufacturer's instructions. The concentrations of purified protein were quantified by a Bradford assay using BSA as a standard. Purified protein was stored in aliquots with 20% (v/v) glycerol at −80 °C.
(§2) NMNH generation. NMNH generation was performed in 20 mL reaction volumes in a 50 ml conical tube containing 200 mM Tris-Cl at pH 8.0, 100 mM sodium chloride, 3 mM potassium chloride, 200 mM glucose, and 20 m MNMN^+. The reaction was initiating by spiking 500 ng of purified Bacillus subtilis glucose dehydrogenase I195R8. The reaction was incubated at 30 °C until reaction progression stopped, approximately 6 h. Reaction progression was monitored by observing the increase in light absorption at 340 nm, corresponding to the reduction of NMN^+ to NMNH. Then, the solution was filtered through a 15 kD cutoff filter to remove the protein. To purify the NMNH, the flowthrough was mixed with HPLC-grade acetonitrile to a final concentration of 70% acetonitrile, and the solution was passed through a Phenomenex Strata NH2 (2 g/12 mL, 55 μm, 70 Å) solid phase extraction column. The column was washed twice with 4 mL of 70:30 acetonitrile:water, then twice with 4 mL of 50:50 acetonitrile:water, twice with 4 mL of 30:70 acetonitrile:water, twice with 4 mL of nanopurified water, and finally twice with 4 mL of methanol. To elute the NMNH from the column, 2 mL of a solution containing 50:50 ammonium hydroxide:methanol was added to the column and incubated for 3 minutes before eluting. The elution step was repeated until no NMNH remained in the flow through, as monitored by light absorption at 340 nm. The elution fractions containing NMNH were pooled and aliquoted in 1 mL volumes into clean tubes. The solutions were dried over air and stored at −80 °C until use.
(§3) Lp Nox Enzymatic Assays and Kinetic study with NMNH, NAD(P) H. The Lp Nox activity (see FIG. 4A) was determined by the change in light absorption at 340 nm at 37 °C in 50 mM Tris-Cl buffer pH 7.0. The reactions were started by adding the purified protein to the prewarmed 37 °C assay mixture containing 0.3 mM of respective cofactor. The absorbance change at 340 nm for NAD(P) H and NMNH was detected using a SpectraMax M3 microplate reader. For kinetics parameter determination (see Table 2), cofactor concentrations were varied from 0 to 2 mM and the results were fitted to the standard Michaelis-Menten equation or Lineweaver-Burk equation to acquire catalytic efficiencies (kcat/Km) when the cofactor concentration tested could not saturate the enzyme activity or during the presence of substrate inhibition. Cofactor concentration over 2 mM could not be measured accurately on M3 spectrometer due to detector absorbance saturation at 340 nm.

Series [3] concerns the target T3, Lactobacillus pentosus NADH oxidase (Lp Nox) variant LP-3 (I158S-D177W-G178E-V240L), SEQ ID NO:6 (Lactiplantibacillus pentosus, UniProt A0A0U3FIG2, D177W/G178E/I158S/V240L).
T3 construct: variant LP-3
T3 sequence (A0A0U3FIG2 1-450 I158S/D177W/G178E/V240L): T1 sequence (A0A0U3FIG2 1-450) with I158S, D177W, G178E, V240L
The series is described as follows: Lp Nox enzymatic kinetics, cofactor oxidation at 340 nm, variant LP-3. Format: biochemical. The following applies: role: cofactor; apparent; 50 mM Tris-HCl pH 7.0, 37 °C; cofactor 0 to 2 mM. On the procedure: as §1, §2, §3

For series [4], the target named is T4, Lactobacillus pentosus NADH oxidase (Lp Nox) variant LP-3-EP (I158S-D177W-G178E-V240L-P362H-V395L), SEQ ID NO:7 (Lactiplantibacillus pentosus, UniProt A0A0U3FIG2, D177W/G178E/I158S/P362H/V240L/V395L).
T4 construct: variant LP-3-EP
T4 sequence (A0A0U3FIG2 1-450 I158S/D177W/G178E/V240L/P362H/V395L): T1 sequence (A0A0U3FIG2 1-450) with I158S, D177W, G178E, V240L, P362H, V395L
The series is described as follows: Lp Nox enzymatic kinetics, cofactor oxidation at 340 nm, variant LP-3-EP. The format is biochemical. The protocol:
as §1, §2, §3

Substrate in series [5]: NC(=O)C1=CN([C@@H]2O[C@H](COP(=O)(O)OP(=O)(O)OC[C@H]3O[C@@H](n4cnc5c(N)ncnc54)[C@H](O)[C@@H]3O)[C@@H](O)[C@H]2O)C=CC1
As to the kind of experiment: Lp Nox enzymatic kinetics, cofactor oxidation at 340 nm, wild type. Format: biochemical, Lactobacillus pentosus. The following applies: other: role: cofactor, apparent, 50 mM Tris-HCl pH 7.0, 37 °C, cofactor 0 to 2 mM. The protocol:
as §1, with “Purified protein was stored in aliquots with 20% (v/v) glycerol at −80 °C.” left out
NMNH generation. […] Reaction progression was monitored by observing the increase in light absorption at 340 nm, corresponding to the reduction of NMN^+ to NMNH. […] The elution step was repeated until no NMNH remained in the flow through, as monitored by light absorption at 340 nm. […]
Lp Nox Enzymatic Assays and Kinetic study with NMNH, NAD(P) H. The Lp Nox activity (see FIG. 4A) was determined by the change in light absorption at 340 nm at 37 °C in 50 mM Tris-Cl buffer pH 7.0. […] The absorbance change at 340 nm for NAD(P) H and NMNH was detected using a SpectraMax M3 microplate reader. […] Cofactor concentration over 2 mM could not be measured accurately on M3 spectrometer due to detector absorbance saturation at 340 nm.

Broadly, the Km is the substrate concentration at which the rate is half of its maximum. The term kcat denotes the number of substrate molecules converted per active site and unit of time at saturation. As usually defined, the kcat/Km is the turnover number divided by the Michaelis constant.

Where a chain is given by its changes, count along the chain named.

For the molecule `CN1C=CCC(C(N)=O)=C1` [MNAH, N-methyl-1,4-dihydronicotinamide], the “catalytic efficiencies (in words)” value in series [1] is “low catalytic efficiencies”.
For `NC(=O)C1=CN(Cc2ccccc2)C=CC1` [BNAH, 1-Benzyl-1,4-dihydronicotinamide], the “catalytic efficiencies (in words)” value in series [1] was “low catalytic efficiencies”.
Take `NC(=O)C1=CN([C@@H]2O[C@H](COP(=O)(O)OP(=O)(O)OC[C@H]3O[C@@H](n4cnc5c(N)ncnc54)[C@H](O)[C@@H]3O)[C@@H](O)[C@H]2O)C=CC1` [NADH, nicotinamide adenine dinucleotide]: in series [2], the Michaelis constant (Km) amounted to 1700 ± 200 µM, the kcat is 47 ± 4 s⁻¹ and the specificity constant (kcat/Km) is 28000 ± 1000 M⁻¹ s⁻¹. In series [3], the Michaelis-Menten constant (Km) worked out at 1900 ± 40 µM, the kcat amounted to 31 ± 1 s⁻¹ and the kcat/Km turned out to be 17000 ± 1000 M⁻¹ s⁻¹. Besides, the kcat/Km in series [4] (role: cofactor, 50 mM Tris-HCl pH 7.0, 37 °C, estimated based on kinetics under lower cofactor concentrations before inhibition was observed) is 49 ± 2.0^c mM^−1s^−1. For the same molecule, in series [4] (role: inhibitor (cofactor inhibition), above 1 mM NADH or NADPH, fits poorly with the substrate inhibition rate equation), the “inhibition of LP 3-EP activity by the cofactor” value was “strongly inhibited”.

B1: Lactobacillus pentosus NADH oxidase (Lp Nox), wild type, SEQ ID NO:1 (Lactiplantibacillus pentosus) (protein)
chain: T1 sequence (A0A0U3FIG2 1-450)
For B1, in series [5], the Michaelis constant (Km) is 24 ± 5 µM, the kcat was determined as 21 ± 1 s⁻¹ and the kcat/Km is 844000 ± 4000 M⁻¹ s⁻¹.
